From US20070292901A1, “Methods and kits for evaluating and measuring the oncological status of tissue samples in three-dimensional physiological matrices” (priority 2006, published 2007)

Test system: Patient Sample GS-640, kidney tissue, renal cell carcinoma
Experiment: Three-dimensional gel matrix screening of chemotherapeutics on patient tumor tissue fragments (cell migration/invasion into the gel)
Type: cell-based, human
Details: renal cell carcinoma patient sample GS-640 in gel matrix; for number of cells that have grown and invaded away from the solid tumor fragment / distance of cell migration away from the solid tumor fragment: 5 days after treatment, photomicrograph; for number of cells that have grown and invaded away from the solid tumor fragment: versus control; for response of tumor sample to the drug: treated for 5 days, 37 degree Celsius, 5% CO2, compared with untreated control (FIG. 5)
Text: FIGS. 1-8 are photographic and photomicrographic images which show, by way of example, use of the means and methods of the present invention with respect to a tissue sample removed from a patient. With respect to FIGS. 1-8, Patient Sample GS-640, comprising kidney tissue, was removed from the patient by a surgeon during surgery.
Tissue analysis and screening in accordance with the invention were requested by the surgeon, and proper consent was obtained from the patient prior to surgical removal of a sample quantity of tissue from the RHS Kidney. The patient was diagnosed with renal cell carcinoma. A tissue sample of approximately 1 gram in quantity was removed from the patient during surgery, and was placed into a 25 ml sample jar, and immersed in sterile saline. The tumor tissue was kept at 4 degrees centigrade until processed for the screening of therapeutic compounds in accordance with the means and methods of the invention. All procedures were performed under sterile conditions in a bio-safety laminar flow hood.
FIG. 1: FIG. 1 is a photographic image showing the mechanical division of the sample into portions to be tested. The sample has been prepared by dissecting away any non viable tissue and blood prior to mincing into 1-2 mm pieces using sterile disposable scalpels.
FIG. 2: FIG. 2 is a photographic image showing tumor sample portions which have been placed into each well of a 48 well plate, and been submersed in a gel matrix mixture according to the invention. After insertion of the portions, the mixture was allowed to form into a gel at room temperature for approximately 30 minutes. Once the gel formed around the fully immersed tumor fragments, nutrient rich media was added as a liquid overlay that permeated the entire gel and tumor fragment.
Each different chemotherapy and or dose of chemotherapy was added to a set of 6 wells out of the 48-well plate. A total of 7 different chemotherapies were assessed in this plate. One set of six wells were not treated with drug and thus acted as ‘control conditions’ for tumor fragment growth and invasion. Each of the eight vertical lanes containing six separate wells was marked with a symbol for each chemotherapy/dose used and noted correspondingly on data collection sheets. […] The plates were then placed in a conventional 37 degree Celsius incubator at 5% CO2.
This image is thus representative of all wells at Day 0 with or without chemotherapeutics. Images were made with a 400× magnification phase contrast micrograph using ZEISS camera specs.
Noteworthy is the halo of cells and increased cell density as compared with the results shown at Day 3 of the test. The lines on the images have been drawn to show the distance measurements within which approximately 95% of the migrating cells have migrated away from the margins of the tissue sample.

## N.N.[Cl][Pt][Cl] [Cisplatin]
  number of cells that have grown and invaded away from the solid tumor fragment: identical in appearance and cell numbers to the control sample
  response of tumor sample to the drug: failed chemotherapy

## CC(=O)O[C@@]12CO[C@@H]1C[C@H](O)[C@@]1(C)C(=O)[C@H](O)C3=C(C)[C@@H](OC(=O)[C@H](O)[C@@H](NC(=O)OC(C)(C)C)c4ccccc4)C[C@@](O)([C@@H](OC(=O)c4ccccc4)[C@H]21)C3(C)C [Docetaxol, Docetaxel]
  distance of cell migration away from the solid tumor fragment: longer migratory distance than treatment with Taxol
  number of cells that have grown and invaded away from the solid tumor fragment: fewer number of invading cells than the control
  response of tumor sample to the drug: moderate response

## CC(=O)O[C@H]1C(=O)[C@@]2(C)[C@H]([C@H](OC(=O)c3ccccc3)[C@]3(O)C[C@H](OC(=O)[C@H](O)[C@@H](NC(=O)c4ccccc4)c4ccccc4)C(C)=C1C3(C)C)[C@]1(OC(C)=O)CO[C@@H]1C[C@@H]2O [Taxol, Paclitaxel]
  distance of cell migration away from the solid tumor fragment: drop
  number of cells that have grown and invaded away from the solid tumor fragment: drop
